{
  "source": "patent US20210395256A1",
  "about": "“TYROSINE KINASE INHIBITORS, COMPOSITIONS AND METHODS THERE OF” (Betta Pharmaceuticals Co., Ltd., priority 2018, published 2021)",
  "key": {"[1]": {"assay": "Plasma protein binding (equilibrium dialysis), human", "assay_type": "in vitro ADME", "conditions": "for recovery at 6 h, 1 μM / fraction unbound at 6 h, 1 μM: pH 7.4, human plasma, 6 hours dialysis; for fraction unbound at 6 h, 1 μM: read-out: Mean % Bound Human (converted)", "description": "Example 204 Plasma Protein Binding Measurements\nThe plasma protein binding was measured as the following procedure.\n1) Preparation of 100 mM sodium phosphate and 150 mM NaCl buffer (PBS)\nA basic solution was prepared by dissolving 14.2 g/L Na2HPO4 and 8.77 g/L NaCl in deionized water and the solution could be stored at 4° C. for up to 7 days. An acidic solution was prepared by dissolving 12.0 g/L NaH2PO4 and 8.77 g/L NaCl in deionized water and the solution could be stored at 4° C. for up to 7 days. The basic solution was titrated with the acidic solution to pH 7.4 and store at 4° C. for up to 7 days. pH was checked on the day of experiment and was adjusted if outside specification of 7.4±0.1.\nFrozen plasma was thawed immediately at room temperature.\nThe plasma was centrifuged at 3,220 g for 10 minutes to remove clots and supernatant was collected into a fresh tube. The pH of the plasma was checked and recorded.\nNote: a). Only use plasma that has been thawed no more than twice since arrival. b). Only use plasma within the range of pH 7 to pH 8.\n3) Preparation of working solutions\nThe working solutions of test compounds and control compound ketoconazole were prepared in DMSO at the concentration of 200 μM. And then 3 μL of working solution was removed to mix with 597 μL of human, rat or mouse plasma to achieve a final concentration of 1 μM (0.5% DMSO). Plasma samples were vortexed thoroughly.\n4) Preparation of dialysis membranes\nThe dialysis membranes were soaked in ultrapure water for 60 minutes to separate strips, then in 20% ethanol for 20 minutes, finally in dialysis buffer for 20 minutes.\n5) Procedure for equilibrium dialysis\nThe dialysis apparatus was assembled according to the manufacturer's instruction. Each cell was filled with 120 μL of plasma sample and dialyzed against equal volume of dialysis buffer (PBS). The assay was performed in duplicate. The dialysis plate was sealed and incubated in an incubator at 37° C. with 5% CO2 at 100 rpm for 6 hours. At the end of incubation, seal was removed and 50 μL of samples from both buffer and plasma chambers were transferred to wells of a 96-well plate.\n6) Procedure for sample analysis\n50 μL of blank plasma was added to each buffer samples and an equal volume of PBS was supplemented to the collected plasma sample. 300 μL of room temperature quench solution (acetonitrile containing internal standards (1S, 100 nM Alprazolam, 500 nM Labetalol and 2 μM Ketoprofen)) was added to precipitate protein. Samples in plate were vortexed for 5 minutes and centrifuged at 3,220 g for 30 minutes at 4° C. And then 100 μL of the supernatant was transferred to a new 96-well plate with 100 μL or 200 μL water (depends on the LC-MS signal response and peak shape) for LC-MS/MS analysis.\nCalculate the percentages of test compound and control compound bound as follows:\n% Free=(Peak Area Ratiobuffer chamber/Peak Area Ratioplasma chamber)*100\n% Recovery=(Peak Area Ratiobuffer chamber+Peak Area Ratioplasma chamber)/Peak Area Ratio total sample*100\nPeak Area Ratiobuffer chamber means the conc for free fraction\nPeak Area Ratioplasma chamber means the conc for both free and bound fraction\nPeak Area Ratiototal sample means the conc for starting sample before incubation"}, "Ba/F3-TPM3-NTRK1": {"target": "T1, Ba/F3-TPM3-NTRK1 (Homo sapiens, UniProt P04629)", "T1 construct": "expressed in transfected cells; host or cells: Ba/F3; the other entry of the earlier key: TPM3 (P06753, Tropomyosin alpha-3 chain)", "T1 sequence (P04629 510-796 limits assumed)": "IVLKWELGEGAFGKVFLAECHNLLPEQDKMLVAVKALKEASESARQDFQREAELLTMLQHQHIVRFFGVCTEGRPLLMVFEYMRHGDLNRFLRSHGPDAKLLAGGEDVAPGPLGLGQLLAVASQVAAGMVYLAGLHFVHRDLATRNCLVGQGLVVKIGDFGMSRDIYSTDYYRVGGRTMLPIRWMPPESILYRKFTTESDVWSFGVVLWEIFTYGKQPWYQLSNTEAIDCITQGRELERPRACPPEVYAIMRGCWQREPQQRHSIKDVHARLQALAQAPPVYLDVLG", "assay": "Ba/F3-TPM3-NTRK1 cells proliferation assay", "assay_type": "cell-based", "conditions": "72 h, CellTiter Glo", "summary_of_the_method": "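Ba/F3 cells stably expressing TPM3-NTRK1 or ETV6-NTRK3 fusions, 2000/well, exposed 72 h to compound at 300 to 0.05 nM final (3-fold series, 0.5% DMSO). Viability by CellTiter-Glo luminescence; IC50 by four-parameter nonlinear regression.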"}},
  "note": "pIC50: −log10 of the molar value.",
  "data": [
    {"smiles": "Cc1nnc(-c2cnn3ccc(N4CCCC4c4cc(F)ccc4F)nc23)[nH]1", "note": "(stereo not shown) [Comparative compound A, 5-[2-(2,5-Difluorophenyl)pyrrolidin-1-yl]-3-(5-methyl-1H-1,2,4-triazol-3-yl)pyrazolo[1,5-a]pyrimidine, reference compound]", "values": [
      {"measurement": "degree of plasma protein binding (in words)", "setting": "[1]; as shown in Table 16", "value": "high degree of plasma protein binding"},
      {"measurement": "recovery at 6 h, 1 μM", "setting": "[1]", "value": 93.8, "unit": "%"},
      {"measurement": "fraction unbound at 6 h, 1 μM", "setting": "[1]", "value": 0.0323}
    ]},
    {"smiles": "C[C@H](O)c1nnc(-c2cnn3ccc(N4CCC[C@@H]4c4cc(F)ccc4F)nc23)[nH]1", "note": "[Compound 4, (S)-1-(5-(5-((R)-2-(2,5-difluorophenyl)pyrrolidin-1-yl)pyrazolo[1,5-a]pyrimidin-3-yl)-4H-1,2,4-triazol-3-yl)ethan-1-ol]", "values": [
      {"measurement": "pIC50", "setting": "Ba/F3-TPM3-NTRK1", "value": 8.45},
      {"measurement": "fraction unbound at 6 h, 1 μM", "setting": "[1]", "value": 0.0691}
    ]},
    {"smiles": "CC(C)(O)c1nnc(-c2cnn3ccc(N4CCC[C@@H]4c4cc(F)ccc4F)nc23)[nH]1", "note": "[Compound 7, (R)-2-(5-(5-(2-(2,5-difluorophenyl)pyrrolidin-1-yl)pyrazolo[1,5-a]pyrimidin-3-yl)-4H-1,2,4-triazol-3-yl)propan-2-ol]", "values": [
      {"measurement": "pIC50", "setting": "Ba/F3-TPM3-NTRK1", "value": 8.09},
      {"measurement": "recovery at 6 h, 1 μM", "setting": "[1]", "value": 96.3, "unit": "%"},
      {"measurement": "fraction unbound at 6 h, 1 μM", "setting": "[1]", "value": 0.0988}
    ]},
    {"smiles": "C[C@H](N)c1nnc(-c2cnn3ccc(N4CCC[C@@H]4c4cc(F)ccc4F)nc23)[nH]1", "note": "[Compound 11, (S)-1-(5-(5-((R)-2-(2,5-difluorophenyl)pyrrolidin-1-yl)pyrazolo[1,5-a]pyrimidin-3-yl)-4H-1,2,4-triazol-3-yl)ethan-1-amine]", "values": [
      {"measurement": "pIC50", "setting": "Ba/F3-TPM3-NTRK1", "value": 7.87},
      {"measurement": "recovery at 6 h, 1 μM", "setting": "[1]", "value": 89.3, "unit": "%"},
      {"measurement": "fraction unbound at 6 h, 1 μM", "setting": "[1]", "value": 0.284}
    ]},
    {"smiles": "OC1(c2nnc(-c3cnn4ccc(N5CCC[C@@H]5c5cc(F)ccc5F)nc34)[nH]2)CCC1", "note": "[Compound 23, (R)-1-(5-(5-(2-(2,5-difluorophenyl)pyrrolidin-1-yl)pyrazolo[1,5-a]pyrimidin-3-yl)-4H-1,2,4-triazol-3-yl)cyclobutan-1-ol]", "values": [
      {"measurement": "pIC50", "setting": "Ba/F3-TPM3-NTRK1", "value": 7.68},
      {"measurement": "fraction unbound at 6 h, 1 μM", "setting": "[1]", "value": 0.0604}
    ]},
    {"smiles": "CC(C)(O)Cc1nnc(-c2cnn3ccc(N4CCC[C@@H]4c4cc(F)ccc4F)nc23)[nH]1", "note": "[Compound 30, (R)-1-(5-(5-(2-(2,5-difluorophenyl)pyrrolidin-1-yl)pyrazolo[1,5-a]pyrimidin-3-yl)-4H-1,2,4-triazol-3-yl)-2-methylpropan-2-ol]", "values": [
      {"measurement": "pIC50", "setting": "Ba/F3-TPM3-NTRK1", "value": 7.86},
      {"measurement": "recovery at 6 h, 1 μM", "setting": "[1]", "value": 90.7, "unit": "%"},
      {"measurement": "fraction unbound at 6 h, 1 μM", "setting": "[1]", "value": 0.139}
    ]},
    {"smiles": "OC1CC(c2nnc(-c3cnn4ccc(N5CCC[C@@H]5c5cc(F)ccc5F)nc34)[nH]2)C1", "note": "(stereo partly drawn) [Compound 31, (R)-3-(5-(5-(2-(2,5-difluorophenyl)pyrrolidin-1-yl)pyrazolo[1,5-a]pyrimidin-3-yl)-4H-1,2,4-triazol-3-yl)cyclobutan-1-ol]", "values": [
      {"measurement": "pIC50", "setting": "Ba/F3-TPM3-NTRK1", "value": 8.41},
      {"measurement": "recovery at 6 h, 1 μM", "setting": "[1]", "value": 96.8, "unit": "%"},
      {"measurement": "fraction unbound at 6 h, 1 μM", "setting": "[1]", "value": 0.121}
    ]},
    {"smiles": "C[C@@H](CO)c1nnc(-c2cnn3ccc(N4CCC[C@@H]4c4cc(F)ccc4F)nc23)[nH]1", "note": "[Compound 39, (R)-2-(5-(5-((R)-2-(2,5-difluorophenyl)pyrrolidin-1-yl)pyrazolo[1,5-a]pyrimidin-3-yl)-4H-1,2,4-triazol-3-yl)propan-1-ol]", "values": [
      {"measurement": "pIC50", "setting": "Ba/F3-TPM3-NTRK1", "value": 8.13},
      {"measurement": "recovery at 6 h, 1 μM", "setting": "[1]", "value": 97.4, "unit": "%"},
      {"measurement": "fraction unbound at 6 h, 1 μM", "setting": "[1]", "value": 0.111}
    ]}
  ]
}
